Data taken from the supplement of paper PMC10307832.

What was measured:
Assay in all cases: relative viability (nuclei count vs DMSO), 5 days (fraction); higher = more cells survive
201T = tested on: 201T
Outline: (§1)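 Medians of duplicate plates are given as relative viability. That measure is the nuclei count in treated wells divided by the count in vehicle wells. Counts were taken on 4× images of lung cancer cell lines in 1536-well plates, 5 days after pin-tool dosing the day after seeding with one drug alone or a fixed anchor-drug dose plus five library-drug doses (not always all listed) in √10 steps.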

BEN = tested on: BEN
Outline: as §1

COR-L 105 = tested on: COR-L 105
Outline: as §1

EKVX = tested on: EKVX
Outline: as §1

EPLC-272H = tested on: EPLC-272H
Outline: as §1

H3255 = tested on: H3255
Outline: as §1

HCC-44 = tested on: HCC-44
Outline: as §1

HCC-827 = tested on: HCC-827
Outline: as §1

LCLC-97TM1 = tested on: LCLC-97TM1
Outline: as §1

LOU-NH91 = tested on: LOU-NH91
Outline: as §1

LU99A = tested on: LU99A
Outline: as §1

NCI-H1437 = tested on: NCI-H1437
Outline: as §1

NCI-H1666 = tested on: NCI-H1666
Outline: as §1

NCI-H1975 = tested on: NCI-H1975
Outline: as §1

NCI-H2085 = tested on: NCI-H2085
Outline: as §1

NCI-H2087 = tested on: NCI-H2087
Outline: as §1

NCI-H2170 = tested on: NCI-H2170
Outline: as §1

NCI-H2342 = tested on: NCI-H2342
Outline: as §1

NCI-H647 = tested on: NCI-H647
Outline: as §1

NCI-H650 = tested on: NCI-H650
Outline: as §1

PC-3 [JPC-3] = tested on: PC-3 [JPC-3]
Outline: as §1

SW 1573 = tested on: SW 1573
Outline: as §1

Work on `O=c1cc(N2CCOCC2)oc2c(-c3cccc4c3sc3ccccc34)cccc12` + CC(=O)Nc1cccc(-n2c(=O)n(C3CC3)c(=O)c3c(Nc4ccc(I)cc4F)n(C)c(=O)c(C)c32)c1 [Trametinib] (partner 0.02 µM) yielded a relative viability (201T; first compound 0.01 µM) of 0.708, a relative viability (201T; first compound 0.03162 µM) of 0.683 and a relative viability (201T; first compound 0.1 µM) of 0.69. It also gave a relative viability (201T; first compound 0.3162 µM) of 0.721, a relative viability (201T; first compound 1 µM) of 0.701 and a relative viability (BEN; first compound 0.01 µM) of 1.06. The relative viability (BEN; first compound 0.03162 µM) was 1.07, the relative viability (BEN; first compound 0.1 µM) was 1.06 and the relative viability (BEN; first compound 0.3162 µM) was 1.01. For the same compound, the relative viability (BEN; first compound 1 µM) was 0.943, the relative viability (COR-L 105; first compound 0.01 µM) was 0.414 and the relative viability (COR-L 105; first compound 0.03162 µM) was 0.427. It also gave a relative viability (COR-L 105; first compound 0.1 µM) of 0.446, a relative viability (COR-L 105; first compound 0.3162 µM) of 0.451 and a relative viability (COR-L 105; first compound 1 µM) of 0.429. For the same compound, the relative viability (EKVX; first compound 0.01 µM) was 0.299, the relative viability (EKVX; first compound 0.03162 µM) was 0.312 and the relative viability (EKVX; first compound 0.1 µM) was 0.337. For the same compound, the relative viability (EKVX; first compound 0.3162 µM) was 0.321, the relative viability (EKVX; first compound 1 µM) was 0.303 and the relative viability (EPLC-272H; first compound 0.01 µM) was 0.301. For the same compound, the relative viability (EPLC-272H; first compound 0.03162 µM) was 0.285, the relative viability (EPLC-272H; first compound 0.1 µM) was 0.333 and the relative viability (EPLC-272H; first compound 0.3162 µM) was 0.284. It also gave a relative viability (EPLC-272H; first compound 1 µM) of 0.279, a relative viability (H3255; first compound 0.01 µM) of 0.548 and a relative viability (H3255; first compound 0.03162 µM) of 0.691. The relative viability (H3255; first compound 0.1 µM) was 0.675, the relative viability (H3255; first compound 0.3162 µM) was 0.703 and the relative viability (H3255; first compound 1 µM) was 0.552. It also gave a relative viability (HCC-44; first compound 0.01 µM) of 1.04, a relative viability (HCC-44; first compound 0.03162 µM) of 1.06 and a relative viability (HCC-44; first compound 0.1 µM) of 1.02. It also gave a relative viability (HCC-44; first compound 0.3162 µM) of 1.04, a relative viability (HCC-44; first compound 1 µM) of 1.03 and a relative viability (HCC-827; first compound 0.01 µM) of 0.528. For the same compound, the relative viability (HCC-827; first compound 0.03162 µM) was 0.508, the relative viability (HCC-827; first compound 0.1 µM) was 0.547 and the relative viability (HCC-827; first compound 0.3162 µM) was 0.504. The relative viability (HCC-827; first compound 1 µM) was 0.525, the relative viability (LCLC-97TM1; first compound 0.01 µM) was 0.197 and the relative viability (LCLC-97TM1; first compound 0.03162 µM) was 0.161. The relative viability (LCLC-97TM1; first compound 0.1 µM) was 0.173, the relative viability (LCLC-97TM1; first compound 0.3162 µM) was 0.173 and the relative viability (LCLC-97TM1; first compound 1 µM) was 0.193. The relative viability (LOU-NH91; first compound 0.01 µM) was 0.801, the relative viability (LOU-NH91; first compound 0.03162 µM) was 0.798 and the relative viability (LOU-NH91; first compound 0.1 µM) was 0.782. The relative viability (LOU-NH91; first compound 0.3162 µM) was 0.821, the relative viability (LOU-NH91; first compound 1 µM) was 0.767 and the relative viability (LU99A; first compound 0.01 µM) was 0.561. For the same compound, the relative viability (LU99A; first compound 0.03162 µM) was 0.576, the relative viability (LU99A; first compound 0.1 µM) was 0.562 and the relative viability (LU99A; first compound 0.3162 µM) was 0.501. For the same compound, the relative viability (LU99A; first compound 1 µM) was 0.541, the relative viability (NCI-H1437; first compound 0.01 µM) was 0.693 and the relative viability (NCI-H1437; first compound 0.03162 µM) was 0.548. It also gave a relative viability (NCI-H1437; first compound 0.1 µM) of 0.531, a relative viability (NCI-H1437; first compound 0.3162 µM) of 0.508 and a relative viability (NCI-H1437; first compound 1 µM) of 0.502. For the same compound, the relative viability (NCI-H1666; first compound 0.01 µM) was 0.882, the relative viability (NCI-H1666; first compound 0.03162 µM) was 0.829 and the relative viability (NCI-H1666; first compound 0.1 µM) was 0.84. For the same compound, the relative viability (NCI-H1666; first compound 0.3162 µM) was 0.814, the relative viability (NCI-H1666; first compound 1 µM) was 0.849 and the relative viability (NCI-H1975; first compound 0.01 µM) was 0.434. It also gave a relative viability (NCI-H1975; first compound 0.03162 µM) of 0.337, a relative viability (NCI-H1975; first compound 0.1 µM) of 0.401 and a relative viability (NCI-H1975; first compound 0.3162 µM) of 0.361. It also gave a relative viability (NCI-H1975; first compound 1 µM) of 0.293, a relative viability (NCI-H2085; first compound 0.01 µM) of 0.515 and a relative viability (NCI-H2085; first compound 0.03162 µM) of 0.541. The relative viability (NCI-H2085; first compound 0.1 µM) was 0.515, the relative viability (NCI-H2085; first compound 0.3162 µM) was 0.577 and the relative viability (NCI-H2085; first compound 1 µM) was 0.454. The relative viability (NCI-H2087; first compound 0.01 µM) was 0.225, the relative viability (NCI-H2087; first compound 0.03162 µM) was 0.195 and the relative viability (NCI-H2087; first compound 0.1 µM) was 0.231. For the same compound, the relative viability (NCI-H2087; first compound 0.3162 µM) was 0.188, the relative viability (NCI-H2087; first compound 1 µM) was 0.214 and the relative viability (NCI-H2170; first compound 0.01 µM) was 0.895. For the same compound, the relative viability (NCI-H2170; first compound 0.03162 µM) was 0.897, the relative viability (NCI-H2170; first compound 0.1 µM) was 0.982 and the relative viability (NCI-H2170; first compound 0.3162 µM) was 0.801. It also gave a relative viability (NCI-H2170; first compound 1 µM) of 0.889, a relative viability (NCI-H2342; first compound 0.01 µM) of 0.728 and a relative viability (NCI-H2342; first compound 0.03162 µM) of 0.874. For the same compound, the relative viability (NCI-H2342; first compound 0.1 µM) was 0.928, the relative viability (NCI-H2342; first compound 0.3162 µM) was 0.962 and the relative viability (NCI-H2342; first compound 1 µM) was 0.833. It also gave a relative viability (NCI-H647; first compound 0.01 µM) of 0.503, a relative viability (NCI-H647; first compound 0.03162 µM) of 0.489 and a relative viability (NCI-H647; first compound 0.1 µM) of 0.487. For the same compound, the relative viability (NCI-H647; first compound 0.3162 µM) was 0.449, the relative viability (NCI-H647; first compound 1 µM) was 0.472 and the relative viability (NCI-H650; first compound 0.01 µM) was 1.05. The relative viability (NCI-H650; first compound 0.03162 µM) was 1.1, the relative viability (NCI-H650; first compound 0.3162 µM) was 0.939 and the relative viability (NCI-H650; first compound 1 µM) was 1.04. The relative viability (PC-3 [JPC-3]; first compound 0.01 µM) was 0.623, the relative viability (PC-3 [JPC-3]; first compound 0.03162 µM) was 0.675 and the relative viability (PC-3 [JPC-3]; first compound 0.1 µM) was 0.649. For the same compound, the relative viability (PC-3 [JPC-3]; first compound 0.3162 µM) was 0.729, the relative viability (PC-3 [JPC-3]; first compound 1 µM) was 0.655 and the relative viability (SW 1573; first compound 0.01 µM) was 0.501. The relative viability (SW 1573; first compound 0.03162 µM) was 0.594, the relative viability (SW 1573; first compound 0.1 µM) was 0.585 and the relative viability (SW 1573; first compound 0.3162 µM) was 0.603. It also gave a relative viability (SW 1573; first compound 1 µM) of 0.501.
